# According to ChEMBL document CHEMBL4811258, “Potent Antimalarials with Development Potential Identified by Structure-Guided Computational Optimization of a Pyrrole-Based Dihydroorotate Dehydrogenase Inhibitor Series” (J Med Chem, 2021):
# What was measured:
# Plasmodium falciparum [1] = system: Plasmodium falciparum
# [2] = Inhibition of Plasmodium falciparum DHODH expressed in Escherichia coli BL21-DE3 using L-dihydroorotate as substrate by steady-state DCIP method
# [3] = Inhibition of Plasmodium vivax DHODH expressed in Escherichia coli BL21-DE3 using L-dihydroorotate as substrate by steady-state DCIP method
# [4] = molecular target: Dihydroorotate dehydrogenase (quinone), mitochondrial (Homo sapiens, UniProt Q02127); type: ADME
# Chain of Dihydroorotate dehydrogenase (quinone), mitochondrial (Q02127 whole entry): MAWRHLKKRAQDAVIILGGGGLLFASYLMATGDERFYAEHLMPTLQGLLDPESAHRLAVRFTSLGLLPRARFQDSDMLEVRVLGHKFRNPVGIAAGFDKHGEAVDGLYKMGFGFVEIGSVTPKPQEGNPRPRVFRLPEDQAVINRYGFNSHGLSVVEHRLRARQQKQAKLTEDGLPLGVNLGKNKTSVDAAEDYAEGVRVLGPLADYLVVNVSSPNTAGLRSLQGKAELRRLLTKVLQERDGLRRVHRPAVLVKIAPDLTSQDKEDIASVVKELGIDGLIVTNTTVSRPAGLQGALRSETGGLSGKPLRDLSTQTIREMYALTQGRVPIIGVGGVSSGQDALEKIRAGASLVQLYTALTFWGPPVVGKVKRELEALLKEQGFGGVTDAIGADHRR
# Plasmodium falciparum [5] = assay: microbe, parasite or virus in culture; details: 3D7, 72 h
Compound,EC50 (Plasmodium falciparum [1]) [nM],IC50 [2] [nM],IC50 [3] [nM],IC50 [4] [µM],EC50 (Plasmodium falciparum [5]) [nM]
Cc1c(C(=O)NC(C)c2nc[nH]n2)[nH]c(Cl)c1Cc1ccc(C(F)(F)F)nc1 (stereo in doubt; form 2),40,200,63,,
Cc1c(Cc2ccc(C(F)(F)F)cc2F)c[nH]c1C(=O)NC(C)c1nc[nH]n1 (stereo in doubt; form 1),150,35000,73,,
Cc1cc(C(C)NC(=O)c2[nH]cc(Cc3ccc(C(F)(F)F)nc3)c2C)no1 (racemic),9,,30,,
Cc1[nH]c(C(=O)NC(C)c2cnn(C)c2)c(C)c1Cc1ccc(C(F)(F)F)nc1 (stereo in doubt; form 2),17,88,76,,
N#Cc1c(Cc2ccc(C(F)(F)F)nc2)c[nH]c1C(=O)NC1CC1,,410,430,> 100,250
Cc1c(Cc2ccc(C(F)(F)F)nc2F)c[nH]c1C(=O)NC1CC1,,11,5.4,> 100,3.1
Cc1c(Cc2ccc(C(F)(F)F)cc2)c[nH]c1C(=O)NC(C)c1cc(Br)no1 (racemic),,380,39,> 100,260
Cc1c(Cc2ccc(C(F)(F)F)nc2)c[nH]c1C(=O)NC(C)c1cnn(C)c1 (racemic),5.5,,62,,
Cc1cc(C(C)NC(=O)c2[nH]c(C)c(Cc3ccc(C(F)(F)F)nc3)c2C#N)no1 (stereo in doubt; form 2),64,95,99,,
Cc1c(C2(c3ccc(C(F)(F)F)nc3)CC2)c[nH]c1C(=O)NC(C)c1cc(C(N)=O)[nH]n1 (racemic),3000,260,180,,
Cc1nc(C(C)NC(=O)c2[nH]cc(Cc3ccc(C(F)(F)F)nc3)c2C)no1 (racemic),,370,100,> 100,190
Cc1c(Cc2ccc(F)c3ccncc23)c[nH]c1C(=O)NC(C)c1nc[nH]n1 (stereo in doubt; form 1),9.5,44,29,,
Cc1c(Cc2ccc(C(F)(F)F)cc2Br)c[nH]c1C(=O)NC(C)c1nc[nH]n1 (racemic),,950,260,> 100,990
Cc1cc(C(C)NC(=O)c2[nH]cc(Cc3ccc(F)c4ccncc34)c2C)no1 (racemic),,36,48,> 100,2.2
Cc1cc(C(C)NC(=O)c2[nH]cc(C3(c4ccc(C(F)(F)F)nc4)CC3)c2C)no1 (stereo in doubt; form 1),11,16,30,,
Cc1cc(C(C)NC(=O)c2[nH]cc(Cc3ccc(C(F)(F)F)cc3)c2C)no1 (stereo in doubt; form 1),170,46,13,,
CCOC(=O)c1[nH]cc(Cc2nc3ccccc3o2)c1C,,900,,> 100,1600
Cc1c(Cc2nc3ccccc3o2)c[nH]c1C(=O)NC1CC1,,670,,> 100,600
Cc1c(Cc2ccc(C(F)(F)F)nc2)c[nH]c1C(=O)NC(C)c1cc(C(N)=O)[nH]n1 (stereo in doubt; form 1),24,35000,230,,
Cc1cc(C(C)NC(=O)c2[nH]cc(Cc3ccc(C(F)(F)F)nc3)c2C)n[nH]1 (stereo in doubt; form 1),20,100,69,,
Cc1cc(C(C)NC(=O)c2[nH]cc(-c3c[nH]c4cc(C(F)(F)F)ccc34)c2C)no1 (stereo in doubt; form 2),85,660,58,> 100,
Cc1cc(C(C)NC(=O)c2[nH]cc(-c3n[nH]c4cc(C(F)(F)F)ccc34)c2C)no1 (stereo in doubt; form 2),62,560,69,,
Cc1c(Cc2ccc(C(F)(F)F)cc2F)c[nH]c1C(=O)NC1CC1,,44,,> 100,
Cc1[nH]c(C(=O)NC(C)c2cn[nH]c2)c(C)c1Cc1ccc(C(F)(F)F)nc1 (stereo in doubt; form 1),6,87,88,,

Compound,EC50 (Plasmodium falciparum [1]) [nM],IC50 [2] [nM],IC50 [3] [nM],IC50 [4] [µM],EC50 (Plasmodium falciparum [5]) [nM]
Cc1c(Cc2ccc(C(F)(F)F)nc2)c[nH]c1C(=O)NC(C)c1cc(C(N)=O)[nH]n1 (racemic),51,650,430,,
CNC(=O)c1c(Cc2ccc(C(F)(F)F)nc2)c[nH]c1C(=O)NC1CC1,,16000,,,3400
Cc1c(Cc2ccc(C(F)(F)F)nc2)c[nH]c1C(=O)N[C@H](C)CO,,2700,,,2100
Cc1c(Cc2ccc(C(F)(F)F)nc2)c[nH]c1C(=O)NC(C)c1nc[nH]n1 (racemic),160,260,120,,
Cc1c(C(=O)NC(C)c2nc[nH]n2)[nH]c(Cl)c1Cc1ccc(C(F)(F)F)nc1 (stereo in doubt; form 4),130,290,100,,
Cc1c(Cc2ccc(C(F)(F)F)nc2)c[nH]c1C(=O)NC(C)c1cc(C#N)[nH]n1 (stereo in doubt; form 1),17,120,83,,
Cc1c(C2(c3ccc(C(F)(F)F)c(F)c3)CC2)c[nH]c1C(=O)NC(C)c1nc[nH]n1 (stereo in doubt; form 1),29,110,61,,
[2H]C([2H])(c1ccc(C(F)(F)F)nc1)c1c[nH]c(C(=O)NC(C)c2cc(C)on2)c1C (stereo in doubt; form 1),,,9.1,,4.7
Cc1c(Cc2ccc(C(F)(F)F)nc2)c[nH]c1C(=O)NC(C)c1cn[nH]c1 (racemic),9,61,48,,
Cc1c(-c2c[nH]c3nc(C(F)(F)F)ccc23)c[nH]c1C(=O)NCC(F)(F)F,,500,,,50
Cc1c(Cc2ccc(C(F)(F)F)nc2)c[nH]c1C(=O)NC(C)c1nc[nH]n1 (stereo in doubt; form 1),66,250,110,,
Cc1c(C2(c3cccc(C(F)(F)F)c3)CC2)c[nH]c1C(=O)NC(C)c1nc[nH]n1 (stereo in doubt; form 1),48,110,40,,
Cc1c(-c2n[nH]c3cc(C(F)(F)F)ccc23)c[nH]c1C(=O)NC(C)c1cc(C(N)=O)[nH]n1 (racemic),,32000,,,500
Cc1c(-c2n[nH]c3cc(C(F)(F)F)ccc23)c[nH]c1C(=O)NCC(F)(F)F,,22000,,,610
Cc1c(Cc2ccc(C(F)(F)F)nc2)c[nH]c1C(=O)NCc1cc[nH]n1,,17000,,,1400
Cc1[nH]c(C(=O)NC(C)c2nc[nH]n2)c(C)c1Cc1ccc(C(F)(F)F)nc1 (stereo in doubt; form 1),140,290,140,,
Cc1c(Cc2ccc(C(F)(F)F)nc2)c[nH]c1C(=O)N[C@H](C)C(N)=O,,> 100000,,,> 10000
Cc1c(Cc2ccc(C(F)(F)F)nc2)c[nH]c1C(=O)NC1COCC1O (stereo not drawn),,61000,,,6400
Cc1c(-c2n[nH]c3nc(C(F)(F)F)ccc23)c[nH]c1C(=O)N1CC(F)(F)C1,,2100,,,> 10000
Cc1c(-c2c[nH]c3cc(C(F)(F)F)ccc23)c[nH]c1C(=O)N1CC(F)(F)C1,,16000,,,620
Cc1c(-c2n[nH]c3nc(C(F)(F)F)ccc23)c[nH]c1C(=O)NCC(F)(F)F,,3900,,,> 10000
Cc1[nH]c(C(=O)N[C@H](C)c2cn[nH]c2)c(C#N)c1Cc1ccc(C(F)(F)F)nc1 (stereo in doubt; form 2),170,660,440,,
Cc1cc(C(C)NC(=O)c2[nH]c(C)c(Cc3ccc(C(F)(F)F)nc3)c2C)no1 (stereo in doubt; form 1),12,65,30,,
